Laboratory results as given in US20120294879A1, “CONSENSUS SEQUENCE FOR INFLUENZA A VIRUS” (priority 2009, published 2012).

What was measured:
[1] = target: HLA-DR4 (HLA-DRA*0101 and -DRB1*0401), as expressed in HLA-DR4 transgenic mice (human); experiment: cell-based or functional assay
[2] = system: splenocytes of HLA-A24 (A*2402) transgenic mice; type: cell-based; design: key to A24: average IFN-γ spots forming cells per million splenocytes: — represents no positive ELISpot response
[3] = system: splenocytes of HLA-B7 (B*0702) transgenic mice; type: cell-based; design: key to B7: average IFN-γ spots forming cells per million splenocytes: — represents no positive ELISpot response
[4] = system: splenocytes of HLA-DR2 (DRB1*1501) transgenic mice; type: cell-based; design: key to DR2: average IFN-γ spots forming cells per million splenocytes: — represents no positive ELISpot response
[5] = system: splenocytes of HLA-DR3 (DRB1*0301) transgenic mice; type: cell-based; design: key to DR3: average IFN-γ spots forming cells per million splenocytes: — represents no positive ELISpot response
[6] = system: splenocytes of HLA-DR4 (DRB1*0401) transgenic mice; type: cell-based; design: key: — represents no positive ELISpot response

Substance “PA 126-142 peptide of influenza virus A/New York/348/2003 (H1N1)” has an IFN-γ ELISpot at 10 µg/ml peptide, splenocytes of immunized HLA transgenic mice [1] of 37 and a lowest concentration of peptide giving positive ELISpot response [1] of 0.1 µg/mL.

Substance “PB1 37-53 peptide of influenza virus A/New York/348/2003 (H1N1)” has an IFN-γ ELISpot at 10 µg/ml peptide, splenocytes of immunized HLA transgenic mice [1] of 125 and a lowest concentration of peptide giving positive ELISpot response [1] of 0.1 µg/mL.

“NP 7-23 peptide of influenza virus A/New York/348/2003 (H1N1)” showed an IFN-γ ELISpot at 10 µg/ml peptide, splenocytes of immunized HLA transgenic mice [1] of 52 and a lowest concentration of peptide giving positive ELISpot response [1] of 0.1 µg/mL.

“NP 73-89 peptide of influenza virus A/New York/348/2003 (H1N1)” showed an IFN-γ ELISpot at 10 µg/ml peptide, splenocytes of immunized HLA transgenic mice [1] of 121 and a lowest concentration of peptide giving positive ELISpot response [1] of 0.1 µg/mL.

In the case of MWEINGPESVLINTYQW, the “A24: average IFN-γ spots forming cells per million splenocytes” value [2] is reported as 289 ± 16 IFN-γ spots forming cells per million splenocytes, the “A24: lowest concentration of peptide giving positive ELISpot response in peptide titration” value [2] is reported as “(0.1) μg/ml” and the “B7: average IFN-γ spots forming cells per million splenocytes” value [3] is reported as “—”. The “DR2: average IFN-γ spots forming cells per million splenocytes” value (from here on “DR2 … per million splenocytes”) [4] was “—”, the “DR3: average IFN-γ spots forming cells per million splenocytes” value (from here on “DR3 … per million splenocytes”) [5] was “—” and the “DR4: average IFN-γ spots forming cells per million splenocytes” value (from here on “DR4 … per million splenocytes”) [6] was “—”.

With LPDMTPSTEMSMRGVRV the “A24: average IFN-γ spots forming cells per million splenocytes” value [2] was “—”, the “B7: average IFN-γ spots forming cells per million splenocytes” value [3] was “—” and the “DR2 … per million splenocytes” value [4] was “—”. For the same substance, the “DR3 … per million splenocytes” value [5] was 324 ± 28(0.1) IFN-γ spots forming cells per million splenocytes, the “DR3: lowest concentration of peptide giving positive ELISpot response in peptide titration” value (from here on “DR3: lowest concentration”) [5] was 324 ± 28(0.1) μg/ml and the “DR4 … per million splenocytes” value [6] was “—”.

In the case of APIMFSNKMARLGKGYM, the “A24: average IFN-γ spots forming cells per million splenocytes” value [2] is reported as “—”, the “B7: average IFN-γ spots forming cells per million splenocytes” value [3] is reported as “—” and the “DR2 … per million splenocytes” value [4] is reported as “—”. For the same substance, the “DR3 … per million splenocytes” value [5] was 175 ± 0(0.1) IFN-γ spots forming cells per million splenocytes, the “DR3: lowest concentration” value [5] was 175 ± 0(0.1) μg/ml and the “DR4 … per million splenocytes” value [6] was “—”.

For SHGTGTGYTMDTVNRTH, the “A24: average IFN-γ spots forming cells per million splenocytes” value [2] was “—”, the “B7: average IFN-γ spots forming cells per million splenocytes” value [3] was “—” and the “DR2 … per million splenocytes” value [4] was “—”. For the same substance, the “DR3 … per million splenocytes” value [5] was “—” and the “DR4 … per million splenocytes” value [6] was 106 ± 1(0.1) IFN-γ spots forming cells per million splenocytes.

For EVHIYYLEKANKIKSEK, the “A24: average IFN-γ spots forming cells per million splenocytes” value [2] was “—”, the “B7: average IFN-γ spots forming cells per million splenocytes” value [3] was “—” and the “DR2 … per million splenocytes” value [4] was “—”. The “DR3 … per million splenocytes” value [5] was “—” and the “DR4 … per million splenocytes” value [6] was 37 ± 11(0.1) IFN-γ spots forming cells per million splenocytes.

In the case of LASTTAKAMEQMAGSSE, the “A24: average IFN-γ spots forming cells per million splenocytes” value [2] is reported as “—”, the “B7: average IFN-γ spots forming cells per million splenocytes” value [3] is reported as “—” and the “DR2 … per million splenocytes” value [4] is reported as “—”. The “DR3 … per million splenocytes” value [5] was “—” and the “DR4 … per million splenocytes” value [6] was 115 ± 21(1) IFN-γ spots forming cells per million splenocytes.

For GRFYIQMCTELKLNDYE, the “A24: average IFN-γ spots forming cells per million splenocytes” value [2] was “—”, the “B7: average IFN-γ spots forming cells per million splenocytes” value [3] was “—” and the “DR2 … per million splenocytes” value [4] was “—”. The “DR3 … per million splenocytes” value [5] was 66 ± 7(1) IFN-γ spots forming cells per million splenocytes, the “DR3: lowest concentration” value [5] was 66 ± 7(1) μg/ml and the “DR4 … per million splenocytes” value [6] was “—”.

In the case of DYRYTYRCHRGDTQIQT, the “A24: average IFN-γ spots forming cells per million splenocytes” value [2] is reported as “—”, the “B7: average IFN-γ spots forming cells per million splenocytes” value [3] is reported as “—” and the “DR2 … per million splenocytes” value [4] is reported as 109 ± 13(1) IFN-γ spots forming cells per million splenocytes. For the same substance, the “DR2: lowest concentration of peptide giving positive ELISpot response in peptide titration” value (from here on “DR2: lowest concentration”) [4] was 109 ± 13(1) μg/ml, the “DR3 … per million splenocytes” value [5] was 166 ± 22(0.1) IFN-γ spots forming cells per million splenocytes and the “DR3: lowest concentration” value [5] was 166 ± 22(0.1) μg/ml. The “DR4 … per million splenocytes” value [6] was 76 ± 2(0.1) IFN-γ spots forming cells per million splenocytes.

ESADMSIGVTVIKNNMI was tested, and the “A24: average IFN-γ spots forming cells per million splenocytes” value [2] was “—”, the “B7: average IFN-γ spots forming cells per million splenocytes” value [3] was “—” and the “DR2 … per million splenocytes” value [4] was 75 ± 10(0.1) IFN-γ spots forming cells per million splenocytes. For the same substance, the “DR2: lowest concentration” value [4] was 75 ± 10(0.1) μg/ml, the “DR3 … per million splenocytes” value [5] was “—” and the “DR4 … per million splenocytes” value [6] was “—”.

With PVHFRNQVKIRRRVDIN the “A24: average IFN-γ spots forming cells per million splenocytes” value [2] was “—”, the “B7: average IFN-γ spots forming cells per million splenocytes” value [3] was “—” and the “DR2 … per million splenocytes” value [4] was “—”. For the same substance, the “DR3 … per million splenocytes” value [5] was “—” and the “DR4 … per million splenocytes” value [6] was 311 ± 37(0.1) IFN-γ spots forming cells per million splenocytes.

DQSLIIAARNIVRRAAV was tested, and the “A24: average IFN-γ spots forming cells per million splenocytes” value [2] was “—”, the “B7: average IFN-γ spots forming cells per million splenocytes” value [3] was “—” and the “DR2 … per million splenocytes” value [4] was “—”. For the same substance, the “DR3 … per million splenocytes” value [5] was 169 ± 12(0.1) IFN-γ spots forming cells per million splenocytes, the “DR3: lowest concentration” value [5] was 169 ± 12(0.1) μg/ml and the “DR4 … per million splenocytes” value [6] was “—”.

In the case of RATAILRKATRRLIQLI, the “A24: average IFN-γ spots forming cells per million splenocytes” value [2] is reported as “—”, the “B7: average IFN-γ spots forming cells per million splenocytes” value [3] is reported as “—” and the “DR2 … per million splenocytes” value [4] is reported as “—”. The “DR3 … per million splenocytes” value [5] was “—” and the “DR4 … per million splenocytes” value [6] was 54 ± 2(0.1) IFN-γ spots forming cells per million splenocytes.

For KLLGINMSKKKSYINRT, the “A24: average IFN-γ spots forming cells per million splenocytes” value [2] was “—”, the “B7: average IFN-γ spots forming cells per million splenocytes” value [3] was “—” and the “DR2 … per million splenocytes” value [4] was “—”. The “DR3 … per million splenocytes” value [5] was 116 ± 10(0.1) IFN-γ spots forming cells per million splenocytes, the “DR3: lowest concentration” value [5] was 116 ± 10(0.1) μg/ml and the “DR4 … per million splenocytes” value [6] was “—”.

In the case of RFLRVRDQRGNVLLSPE, the “A24: average IFN-γ spots forming cells per million splenocytes” value [2] is reported as “—”, the “B7: average IFN-γ spots forming cells per million splenocytes” value [3] is reported as 184 ± 3 IFN-γ spots forming cells per million splenocytes and the “B7: lowest concentration of peptide giving positive ELISpot response in peptide titration” value [3] is reported as “(0.1) μg/ml”. For the same substance, the “DR2 … per million splenocytes” value [4] was “—”, the “DR3 … per million splenocytes” value [5] was “—” and the “DR4 … per million splenocytes” value [6] was “—”.

For DKLTQGRQTYDWTLNRN, the “A24: average IFN-γ spots forming cells per million splenocytes” value [2] was “—”, the “B7: average IFN-γ spots forming cells per million splenocytes” value [3] was “—” and the “DR2 … per million splenocytes” value [4] was “—”. For the same substance, the “DR3 … per million splenocytes” value [5] was 142 ± 6(0.1) IFN-γ spots forming cells per million splenocytes, the “DR3: lowest concentration” value [5] was 142 ± 6(0.1) μg/ml and the “DR4 … per million splenocytes” value [6] was “—”.

With PESVLINTYQWIIRNWE the “A24: average IFN-γ spots forming cells per million splenocytes” value [2] was 226 ± 5 IFN-γ spots forming cells per million splenocytes, the “A24: lowest concentration of peptide giving positive ELISpot response in peptide titration” value [2] was “(0.1) μg/ml” and the “B7: average IFN-γ spots forming cells per million splenocytes” value [3] was “—”. The “DR2 … per million splenocytes” value [4] was “—”, the “DR3 … per million splenocytes” value [5] was “—” and the “DR4 … per million splenocytes” value [6] was “—”.

In the case of LQLFIKDYRYTYRCHRG, the “A24: average IFN-γ spots forming cells per million splenocytes” value [2] is reported as “—”, the “B7: average IFN-γ spots forming cells per million splenocytes” value [3] is reported as “—” and the “DR2 … per million splenocytes” value [4] is reported as 61 ± 2(1) IFN-γ spots forming cells per million splenocytes. For the same substance, the “DR2: lowest concentration” value [4] was 61 ± 2(1) μg/ml, the “DR3 … per million splenocytes” value [5] was 230 ± 23(0.1) IFN-γ spots forming cells per million splenocytes and the “DR3: lowest concentration” value [5] was 230 ± 23(0.1) μg/ml. The “DR4 … per million splenocytes” value [6] was 97 ± 30(0.1) IFN-γ spots forming cells per million splenocytes.

With NPSLRMKWMMAMKYPIT the “A24: average IFN-γ spots forming cells per million splenocytes” value [2] was “—”, the “B7: average IFN-γ spots forming cells per million splenocytes” value [3] was “—” and the “DR2 … per million splenocytes” value [4] was “—”. The “DR3 … per million splenocytes” value [5] was “—” and the “DR4 … per million splenocytes” value [6] was 166 ± 3(0.1) IFN-γ spots forming cells per million splenocytes.
